Measurements reported in ChEMBL document CHEMBL1201862, “PubChem BioAssay data set” (2004).
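48-hour exposure; five concentrations; linearly interpolated endpoints. Here, GI50 denotes the concentration required for 50% inhibition of growth.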 Active and inactive are the calls of the source. No stated cut-off is given here; in the data, active = GI50 up to about 1.1 µM and inactive = higher.

How the values were obtained:
Assay in all cases: NCI-60 cell line screen, 48 h
U-251 = system: U-251
HL-60 = system: HL-60
HOP-92 = system: HOP-92
OVCAR-4 = system: OVCAR-4
UACC-62 = system: UACC-62
SK-OV-3 = system: SK-OV-3
HCC 2998 = system: HCC 2998
HCT-15 = system: HCT-15
786-0 = system: 786-0
MDA-MB-231 = system: MDA-MB-231
SR = system: SR
T47D = system: T47D
EKVX = system: EKVX
PC-3 = system: PC-3
ACHN = system: ACHN
A549 = system: A549
NCI-H460 = system: NCI-H460
Malme-3M = system: Malme-3M
SF-295 = system: SF-295
K562 = system: K562

| SMILES | GI50 (U-251) | GI50 (HL-60) | GI50 (HOP-92) | GI50 (OVCAR-4) | GI50 (UACC-62) | GI50 (SK-OV-3) | GI50 (HCC 2998) | GI50 (HCT-15) | GI50 (786-0) | GI50 (MDA-MB-231) | GI50 (SR) | GI50 (T47D) | GI50 (EKVX) | GI50 (PC-3) | GI50 (ACHN) | GI50 (A549) | GI50 (NCI-H460) | GI50 (Malme-3M) | GI50 (SF-295) | GI50 (K562) |
| --- | --- | --- | --- | --- | --- | --- | --- | --- | --- | --- | --- | --- | --- | --- | --- | --- | --- | --- | --- | --- |
| CCCCCCCCCCCCC(=O)OC(c1cnco1)c1nc(C(O)CC(O)C(O)C(C)O)co1 (stereo not given) | 0.129 µM (active) | 0.849 µM (active) | 1.34 µM (inactive) | 1.3 µM (inactive) | 0.341 µM (active) | 3.94 µM (inactive) | 1.31 µM (inactive) | 9.44 µM | 0.217 µM (active) | 1.89 µM (inactive) | < 0.0407 µM (active) | 4.71 µM (inactive) | 11.8 µM (inactive) | 2.22 µM (inactive) | 1.45 µM (inactive) | 0.264 µM (active) | < 0.039 µM (active) | 0.828 µM (active) | 0.467 µM (active) | 0.21 µM (active) |
| CC[C@]1(Cc2ccc(OC)c(OC)c2)C=[N+]([O-])O[C@H](OC2CCCCC2c2ccccc2)[C@@H]1OC(C)=O (stereo not given in full) | 46.6 µM (inactive) | 18.1 µM (inactive) | 57.7 µM (inactive) | 33 µM (inactive) | 56.1 µM (inactive) | 84.9 µM (inactive) | 43.5 µM (inactive) | 37.2 µM | 45.3 µM (inactive) | 75.3 µM (inactive) | 22.8 µM (inactive) | 24.7 µM (inactive) | 46.7 µM (inactive) | 31.8 µM (inactive) | 30.5 µM (inactive) | 41.5 µM (inactive) | 37.5 µM (inactive) | 52.8 µM (inactive) | 37.9 µM (inactive) | 30.8 µM (inactive) |
